Test system: hMLH1 expression (methylation-silenced hMLH1 promoter) in HEK293T cells
Experiment: hMLH1 mRNA levels by TaqMan qRT-PCR in transfected HEK293T cells
Format: cell-based, human
Conditions: for hMLH1 activation, comparison in words (direct dCas9 fusions vs Casilio-ME): same combination of sgRNAs; for hMLH1 expression, fold over background (change in mRNA levels): sgRNAs 3+7, 60 hours post-transfection, GAPDH control; for stimulation of TET1(CD) mediated hMLH1 activation by GADD45A PUFc fusions: co-expressed with PUFa-TET1(CD), gRNAs-PBSac
Method: To test the system, HEK293T cells were transfected with Casilio-ME components including Ct or Nt-fusion TET1-effector and a combination of 3 or 2 sgRNAs. Relative levels of hMLH1 mRNA were determined in TaqMan assays by using RNA extracted from cells 60 hours post-transfection and GAPDH as endogenous control for normalization of qRT-PCR measurements.
Cell culture and transfection. HEK293T cells were cultivated in Dulbecco's modified Eagle's medium (DMEM)(Sigma) with 10% fetal bovine serum (FBS)(Lonza), 4% Glutamax (Gibco), 1% Sodium Pyruvate (Gibco) and penicillin-streptomycin (Gibco) in an incubator set to 37° C. and 5% CO2. When indicated cells were treated with 2.5 μM or 5 μM 5-Azacytidine (sigma) as indicated with a daily change of medium containing freshly diluted drug. Cells were seeded into 12-well plates at 150,000 cells per well the day before being transfected with 100 ng of dCas9 construct, 100 ng of modified sgRNA construct and 200 ng of PUF-fusion with Attractene transfection reagent according to manufacturer's instructions (Qiagen). In dCas9-direct fusion experiments, cells were transfected with 200 ng dCas9-fusion constructs and 200 ng of modified sgRNA constructs. Transfected cells were harvested 60 hours after transfection, or otherwise indicated, and cell pellets were used for extractions of RNA, genomic DNA and protein.
Quantitative RT-PCR analysis. Cells were harvested, washed with Dulbecco's phosphate-buffered saline (dPBS), centrifuged at 125×g for 5 min and then the flash-frozen pellets were stored at −80° C. RNA was extracted using RNeasy Plus Mini Kit according to the manufacturer's instructions (Qiagen). cDNA libraries were made using Applied Biosystems High Capacity RNA-to-cDNA kit with 200 ng to 1 μg of RNA. TaqMan gene expression assays (Applied Biosystems) were designed using GAPDH (Hs03929097, VIC) as endogenous control and hMLH1 (Hs00179866, FAM) as target. TaqMan Universal Master Mix II, with UNG (Applied Biosystems) was used for Quantitative PCR (qPCR), with 2 μl of diluted cDNA used for each reaction. Activation was analyzed with the Applied Biosystems ViiA7 instrument. Gene expression levels were calculated by “delta delta Ct” algorithm and normalized to control samples.
HEK293T cells were cultivated in Dulbecco's modified Eagle's medium (DMEM) (Sigma) with 10% fetal bovine serum (FBS) (Lonza), 4% Glutamax (Gibco), 1% Sodium Pyruvate (Gibco) and penicillin-streptomycin (Gibco) in an incubator set to 37° C. and 5% CO2. Cells were seeded into 12-well plates at 150,000 cells per well the day before being transfected with 100 ng of dCas9 construct, 100 ng of modified sgRNA construct and 200 ng of PUF-fusion with Attractene transfection reagent according to manufacturer's instructions (Qiagen). Transfected cells were harvested 3 days after transfection, or otherwise indicated, and cell pellets were used for RNA extractions.
Cells were harvested, washed with Dulbecco's phosphate-buffered saline (dPBS), centrifuged at 125×g for 5 min and then the flash-frozen pellets were stored at −80° C. RNA was extracted using RNeasy Plus Mini Kit according to the manufacturer's instructions (Qiagen). cDNA libraries were made using Applied Biosystems High Capacity RNA-to-cDNA kit with 200 ng to 2 μg of RNA. TaqMan gene expression assays (Applied Biosystems) were designed using GAPDH (Hs03929097, VIC) as endogenous control and hMLH1 (Hs00179866, FAM) as target. TaqMan Universal Master Mix II, with UNG (Applied Biosystems) was used for Quantitative PCR (qPCR), with 2 μl of diluted cDNA used for each reaction. Activation was analyzed with the Applied Biosystems ViiA7 instrument. Gene expression levels were calculated by “delta delta Ct” algorithm and normalized to control samples.

## TET1(CD)-dCas9: direct N-terminal fusion of TET1(CD) to dCas9; SEQ ID NO:52
HEK293T
  hMLH1 activation, comparison in words (direct dCas9 fusions vs Casilio-ME): much weaker activation than its respective C-terminal fusion

## dCas9-TET1(CD): direct C-terminal fusion of TET1(CD) to dCas9; SEQ ID NO:53
HEK293T
  hMLH1 activation, comparison in words (direct dCas9 fusions vs Casilio-ME): relatively weak activation
  hMLH1 expression, fold over background (change in mRNA levels): 19 fold
HEK293T, same sgRNA combination
  hMLH1 activation relative to dCas9-p65HSF1: at best twice the activity obtained with transcription activator dCas9 fusion
Same sgRNAs combination, parallel experiment
  hMLH1 activation as share of activation obtained using Casilio-ME: about 14%

B1: PUFc-GADD45A: SEQ ID NO:106 (protein)
chain: MIDGGGGSDPKKKRKVDPKKKRKVDPKKKRKVGSTGSRNDGGGGSGGGGSGGGGSGRAGILPPKKKRKVSRGRSRLLEDFRNNRYPNLQLREIAGHIMEFSQDQHGSRFIQLKLERATPAERQLVFNEILQAAYQLMVDVFGNYVIQKFFEFGSLEQKLALAERIRGHVLSLALQMYGSRVIEKALEFIPSDQQNEMVRELDGHVLKCVKDQNGNHVVQKCIECVQPQSLQFIIDAFKGQVFALSTHPYGCRVIQRILEHCLPDQTLPILEELHQHTEQLVQDQYGSYVIEHVLEHGRPEDKSKIVAEIRGNVLVLSQHKFANNVVQKCVTHASRTERAVLIDEVCTMNDGPHSALYTMMKDQYANYVVQKMIDVAEPGQRKIVMHKIRPHIATLRKYTYGKHILAKLEKYYMKNGVDLGDPKKKRKVDPKKKRKVGGRGGGGSGGGGSGGGGSGPALTLEEFSAGEQKTERMDKVGDALEEVLSKALSQRTITVGVYEAAKLLNVDPDNVVLCLLAADEDDDRDVALQIHFTLIQAFCCENDINILRVSNPGRLAELLLLETDAGPAASEGAEQPPDLHCVLVTNPHSSQWKDPALSQLICFCRESRYMDQWVPVINLPERSRYPYDVPDYA
  stimulation of TET1(CD) mediated hMLH1 activation by GADD45A PUFc fusions: significant stimulation of the TET1(CD) mediated hMLH1 activation

B2: PUFa-GADD45A-TET1(CD): GADD45A between PUFa and TET1(CD); SEQ ID NO:105 (protein)
chain: MIDGGGGSDPKKKRKVDPKKKRKVDPKKKRKVGSTGSRNDGGGGSGGGGSGGGGSGRAGILPPKKKRKVSRGRSRLLEDFRNNRYPNLQLREIAGHIMEFSQDQHGSRFIQLKLERATPAERQLVFNEILQAAYQLMVDVFGNYVIQKFFEFGSLEQKLALAERIRGHVLSLALQMYGSRVIEKALEFIPSDQQNEMVRELDGHVLKCVKDQNGNHVVQKCIECVQPQSLQFIIDAFKGQVFALSTHPYGCRVIQRILEHCLPDQTLPILEELHQHTEQLVQDQYGNYVIQHVLEHGRPEDKSKIVAEIRGNVLVLSQHKFASNVVEKCVTHASRTERAVLIDEVCTMNDGPHSALYTMMKDQYANYVVQKMIDVAEPGQRKIVMHKIRPHIATLRKYTYGKHILAKLEKYYMKNGVDLGDPKKKRKVDPKKKRKVGGRGGGSGGGSGGGSGGGSGGGSGGGSLTLEEFSAGEQKTERMDKVGDALEEVLSKALSQRTITVGVYEAAKLLNVDPDNVVLCLLAADEDDDRDVALQIHFTLIQAFCCENDINILRVSNPGRLAELLLLETDAGPAASEGAEQPPDLHCVLVTNPHSSQWKDPALSQLICFCRESRYMDQWVPVINLPERSRGRGGGGSGGGGSGGGGSGPAELPTCSCLDRVIQKDKGPYYTHLGAGPSVAAVREIMENRYGQKGNAIRIEIVVYTGKEGKSSHGCPIAKWVLRRSSDEEKVLCLVRQRTGHHCPTAVMVVLIMVWDGIPLPMADRLYTELTENLKSYNGHPTDRRCTLNENRTCTCQGIDPETCGASFSFGCSWSMYFNGCKFGRSPSPRRFRIDPSSPLHEKNLEDNLQSLATRLAPIYKQYAPVAYQNQVEYENVARECRLGSKEGRPFSGVTACLDFCAHPHRDIHNMNNGSTVVCTLTREDNRSLGVIPQDEQLHVLPLYKLSDTDEFGSKEGMEAKIKSGAIEVLAPRRKKRTCFTQPVPRSGKKRAAMMTEVLAHKIRAVEKKPIPRIKRKNNSTTTNNSKPSSLPTLGSNTETVQPEVKSETEPHFILKSSDNTKTYSLMPSAPHPVKEASPGFSWSPKTASATPAPLKNDATASCGFSERSSTPHCTMPSGRLSGANAAAADGPGISQLGEVAPLPTLSAPVMEPLINSEPSTGVTEPLTPHQPNHQPSFLTSPQDLASSPMEEDEQHSEADEPPSDEPLSDDPLSPAEEKLPHIDEYWSDSEHIFLDANIGGVAIAPAHGSVLIECARRELHATTPVEHPNRNHPTRLSLVFYQHKNLNKPQHGFELNKIKFEAKEAKNKKMKASEQKDQAANEGPEQSSEVNELNQIPSHKALTLTHDNVVTVSPYALTHVAGPYNHWVID
GADD45A two-in-one effectors, HEK293T, TaqMan
  enhancement of hMLH1 expression relative to PUFa-TET1(CD) alone: 4 fold

B3: GADD45A-PUFc: SEQ ID NO:107 (protein)
chain: MTLEEFSAGEQKTERMDKVGDALEEVLSKALSQRTITVGVYEAAKLLNVDPDNVVLCLLAADEDDDRDVALQIHFTLIQAFCCENDINILRVSNPGRLAELLLLETDAGPAASEGAEQPPDLHCVLVTNPHSSQWKDPALSQLICFCRESRYMDQWVPVINLPERSRYPYDVPDYAIDGGGGSDPKKKRKVDPKKKRKVDPKKKRKVGSTGSRNDGGGGSGGGGSGGGGSGRAGILPPKKKRKVSRGRSRLLEDFRNNRYPNLQLREIAGHIMEFSQDQHGSRFIQLKLERATPAERQLVFNEILQAAYQLMVDVFGNYVIQKFFEFGSLEQKLALAERIRGHVLSLALQMYGSRVIEKALEFIPSDQQNEMVRELDGHVLKCVKDQNGNHVVQKCIECVQPQSLQFIIDAFKGQVFALSTHPYGCRVIQRILEHCLPDQTLPILEELHQHTEQLVQDQYGSYVIEHVLEHGRPEDKSKIVAEIRGNVLVLSQHKFANNVVQKCVTHASRTERAVLIDEVCTMNDGPHSALYTMMKDQYANYVVQKMIDVAEPGQRKIVMHKIRPHIATLRKYTYGKHILAKLEKYYMKNGVDLGDPKKKRKVDPKKKRKVGGRGGGGSGGGGSGGGGSGPA
  stimulation of TET1(CD) mediated hMLH1 activation by GADD45A PUFc fusions: higher activity compared to PUFc-GADD45A fusions

B4: TET1(CD)-PUFa: TET1 catalytic domain fused to N-terminus of PUFa; SEQ ID NO:54 (protein)
chain: MGPAELPTCSCLDRVIQKDKGPYYTHLGAGPSVAAVREIMENRYGQKGNAIRIEIVVYTGKEGKSSHGCPIAKWVLRRSSDEEKVLCLVRQRTGHHCPTAVMVVLIMVWDGIPLPMADRLYTELTENLKSYNGHPTDRRCTLNENRTCTCQGIDPETCGASFSFGCSWSMYFNGCKFGRSPSPRRFRIDPSSPLHEKNLEDNLQSLATRLAPIYKQYAPVAYQNQVEYENVARECRLGSKEGRPFSGVTACLDFCAHPHRDIHNMNNGSTVVCTLTREDNRSLGVIPQDEQLHVLPLYKLSDTDEFGSKEGMEAKIKSGAIEVLAPRRKKRTCFTQPVPRSGKKRAAMMTEVLAHKIRAVEKKPIPRIKRKNNSTTTNNSKPSSLPTLGSNTETVQPEVKSETEPHFILKSSDNTKTYSLMPSAPHPVKEASPGFSWSPKTASATPAPLKNDATASCGFSERSSTPHCTMPSGRLSGANAAAADGPGISQLGEVAPLPTLSAPVMEPLINSEPSTGVTEPLTPHQPNHQPSFLTSPQDLASSPMEEDEQHSEADEPPSDEPLSDDPLSPAEEKLPHIDEYWSDSEHIFLDANIGGVAIAPAHGSVLIECARRELHATTPVEHPNRNHPTRLSLVFYQHKNLNKPQHGFELNKIKFEAKEAKNKKMKASEQKDQAANEGPEQSSEVNELNQIPSHKALTLTHDNVVTVSPYALTHVAGPYNHWVIDGGGGSDPKKKRKVDPKKKRKVDPKKKRKVGSTGSRNDGGGGSGGGGSGGGGSGRAGILPPKKKRKVSRGRSRLLEDFRNNRYPNLQLREIAGHIMEFSQDQHGSRFIQLKLERATPAERQLVFNEILQAAYQLMVDVFGNYVIQKFFEFGSLEQKLALAERIRGHVLSLALQMYGSRVIEKALEFIPSDQQNEMVRELDGHVLKCVKDQNGNHVVQKCIECVQPQSLQFIIDAFKGQVFALSTHPYGCRVIQRILEHCLPDQTLPILEELHQHTEQLVQDQYGNYVIQHVLEHGRPEDKSKIVAEIRGNVLVLSQHKFASNVVEKCVTHASRTERAVLIDEVCTMNDGPHSALYTMMKDQYANYVVQKMIDVAEPGQRKIVMHKIRPHIATLRKYTYGKHILAKLEKYYMKNGVDLGDPKKKRKVDPKKKRKVGGRGGGGSGGGGSGGGGSGPA
HEK293T
  hMLH1 expression, fold over background (change in mRNA levels): ≤ 20 fold

From patent US20190218261A1, “TARGETED ENHANCED DNA DEMETHYLATION” (The Jackson Laboratory, priority 2016, published 2019)
